In test [1] the test system is inflammatory bowel disease-induced mouse model (DSS). Nature of the test: Clinical symptom analysis (body weight, DAI, survival) in 2% DSS inflammatory bowel disease-induced mouse model. It counts as in vivo. The method, then:
An inflammatory bowel disease-induced mouse model using dextran sodium sulfate (DSS) was prepared by the following method.
Specifically, male C57BL/6 mice (7 to 12 weeks old, body weight of 18 to 30 g) were adapted for one week and used in the experiment. Animal rearing was carried out under the conditions of a temperature of 25° C. and a day and night cycle (12 hours night/12 hours daytime), and feed and drinking water were freely fed. All the animals were managed according to the guidelines for use of experimental animals of Seoul National University IACUC (IACUC: SNU-151223-4-1). On the day of administration of DSS (MP Biomedicals, Santa Ana, Calif., USA) (Day 0), mice were weighed and marked on the tail.
Next, male C57BL/6 mice were fed with a 2% DSS solution together with drinking water from Day 0 of the experiment to induce inflammatory bowel disease. DPBS or 10, 5, 2.5, or 1 mg/kg sodium taurodeoxycholic acid (TDCA) was administered in 0.1 ml by oral gavage one time a day from Day 1 of the experiment. Alternatively, 0.1 ml of 5 mg/kg TDCA was administered one time a day by oral gavage 2 days before DSS administration.
The 2% DSS solution was used after being prepared by dissolving DSS powder in sterilized distilled water and filtering the solution. The TDCA was dissolved in DPBS (Dulbecco's phosphate-buffered saline) and used.
(§1) The disease activity indexes (DAI) including body weight, body weight loss, stool consistency, and bloody stool were measured daily. DAI was scored according to the following [Table 1].
(§2) Specifically, female C57BL/6 mice were fed with a 2% DSS solution or DPBS together with drinking water for 10 days from Day 0 of the experiment by the same method as that described in <Example 1>, DPBS or 5 mg/kg TDCA was administered to the mice by oral gavage one time a day for 11 days from Day 1 of the experiment, and the body weight and DAI were measured daily. As a control, mice freely fed with drinking water were used.
Specifically, female C57BL/6 mice were fed with a 2% DSS solution or DPBS together with drinking water for 10 days from Day 0 of the experiment by the same method as that described in <Example 1>, DPBS or 10, 5, 2.5, or 1 mg/kg TDCA was administered to the mice by oral gavage one time a day for 11 days from Day 1 of the experiment, and the body weight and DAI were measured daily. As a control, mice freely fed with drinking water were used.
Specifically, female C57BL/6 mice were fed with a 2% DSS solution together with drinking water for 7 days from Day 0 of the experiment by the same method as that described in <Example 1>, DPBS or 5 mg/kg TDCA was administered to the mice by oral gavage from Day 1 of DSS administration or 2 days before DSS administration, and the body weight and DAI were measured daily. As a control, mice freely fed with drinking water were used.
as §2, with “Specifically, C57BL/6-Gpbar1^tm1(KOMP)Vlcg mice (TGR5 KO, KOMP Repository, The Knockout Mouse Project, University of California, Davis, Calif.) were used as TGR5 knockout (TGR5^−/−) female C57BL/6 mice. The TGR5^−/− female C57BL/6 mice or TGR5 normal (WT)” for “Specifically,”, “1>.” for “1>,”

The test system of test [2] is TGR5 knockout (TGR5−/−) inflammatory bowel disease-induced mouse model. In words: Clinical symptom analysis in DSS-induced TGR5 knock-out (TGR5−/−) mouse model. It counts as in vivo. As to conditions: TGR5−/− mice, 2% DSS 10 days. The method, then:
as §1
as §2, with “Specifically, C57BL/6-Gpbar1^tm1(KOMP)Vlcg mice (TGR5 KO, KOMP Repository, The Knockout Mouse Project, University of California, Davis, Calif.) were used as TGR5 knockout (TGR5^−/−) female C57BL/6 mice. The TGR5^−/− female C57BL/6 mice or TGR5 normal (WT)” for “Specifically,”, “1>.” for “1>,”

Molecules are shown by their SMILES.

With `C[C@H](CCC(=O)NCCS(=O)(=O)O)[C@H]1CC[C@H]2[C@@H]3CC[C@@H]4C[C@H](O)CC[C@]4(C)[C@H]3C[C@H](O)[C@]12C` [TDCA, sodium taurodeoxycholic acid], the “initial body weight lost on Day 10” value in test [1] (2% DSS 10 days, 5 mg/kg TDCA oral gavage one time a day for 11 days from Day 1, DSS+DPBS group about 15%, FIG. 1A) was “about 5%”; in test [1] (TGR5 normal (WT) mice, 2% DSS 10 days, 5 mg/kg TDCA oral gavage one time a day, FIG. 8A), “about 5%”; in test [2] (5 mg/kg TDCA oral gavage one time a day, FIG. 8A), “about 27%”. Further, the survival rate was determined as 100% in test [1] (2% DSS 10 days, 5 mg/kg TDCA oral gavage one time a day, DSS+DPBS group 60%, FIG. 1C); 100% in test [1] (TGR5 normal (WT) mice, 2% DSS 10 days, 5 mg/kg TDCA, FIG. 8C); 60% in test [2] (5 mg/kg TDCA, FIG. 8C). Moreover, in test [1] (2% DSS 10 days, 5 mg/kg TDCA oral gavage one time a day, FIG. 1A), the “start of body weight loss later than the DSS+DPBS group” value is “about 2 days”. In addition, the “DAI (disease activity index) change” value in test [1] (2% DSS 10 days, 5 mg/kg TDCA oral gavage one time a day, FIG. 1B) is reported as “lower than that in the DSS+DPBS group”. Further, the DAI change entry was “lower than that in the DSS+DPBS group” in test [1] (2% DSS 10 days, 10, 5, 2.5, or 1 mg/kg TDCA, FIG. 4B); “DAI was lower” in test [1] (2% DSS 10 days, TDCA at 10, 5, and 2.5 mg/kg, among 10, 5, 2.5, 1 mg/kg, FIG. 4B); “similarly decreased” in test [1] (DSS+TDCA group: 5 mg/kg TDCA from Day 1 of DSS administration, 2% DSS 7 days, FIG. 6B); “similarly decreased” in test [1] (DSS+preTDCA group: 5 mg/kg TDCA from 2 days before DSS administration, 2% DSS 7 days, FIG. 6B); “lower than those in the other groups” in test [1] (TGR5 normal (WT) mice, 2% DSS 10 days, 5 mg/kg TDCA, FIG. 8B); “DAI was high” in test [2] (5 mg/kg TDCA, FIG. 8B). Besides, the “degree of alleviation of body weight loss” value in test [1] (2% DSS 10 days, TDCA at 5 and 10 mg/kg, among 10, 5, 2.5, 1 mg/kg, FIG. 4A) is on record as “superior”.

For the origin of these results see patent publication US20210386761A1, “COMPOSITION FOR PREVENTING OR TREATING INFLAMMATORY BOWEL DISEASE, CONTAINING, AS ACTIVE INGREDIENT, TAURODEOXYCHOLIC ACID OR PHARMACEUTICALLY ACCEPTABLE SALT THEREOF” (SHAPERON INC., priority 2019, published 2021).
